Non-standard residues stand in square brackets, D forms with d. Residues, ends and D or L forms follow the SMILES beside them. Tyr(3,5-I2) = N[C@@H](Cc1cc(I)c(O)c(I)c1)C(=O)O
Q: For `CC(C)[C@H](NC(=O)[C@H](Cc1cc(I)c(O)c(I)c1)NC(=O)[C@H](CC(=O)O)NC(=O)CNC(=O)[C@H](CCCNC(=N)N)NC(=O)CN)C(=O)O` [[^131I]I-GRGDYV] (H-GRGD[Tyr(3,5-I2)]V-OH), which Radiochemical purity in human serum up to 24 h is on record?
A: > 94%

Source: publication PMC8876959, “Comparative Evaluation of Radiochemical and Biological Properties of ^131I- and [^99mTc]Tc(CO)3-Labeled RGD Analogues Planned to Interact with the αvβ3 Integrin Expressed in Glioblastoma” (Pharmaceuticals, 2022)
